Values quoted from earlier work, collected in patent US20240268433A1, “Nutritional Compositions for Preserving Muscle Mass” (Dutch Medical Food B.V., priority 2021, published 2024).

Assays:
[1] = system: GABAA receptor; settings: chicken; administered with serine
[2] = system: adults between the age of 25 and 59 years
[3] = system: elderly adults exposed to bedrest; settings: bed rest induced muscle atrophy
[4] = system: female individuals that complain about their sleep quality

picrotoxin
effect on sedative and hypnotic effect of serine [1]: attenuated the sedative and hypnotic effect of serine

N[C@@H](CO)C(=O)O [serine]
resistance or rebound insomnia after discontinuation of ingestion ([2]; after discontinuation of ingestion): did not appear to suffer from resistance or occurrence of rebound insomnia
quality of sleep (sleep initiation, nighttime awakenings) ([2]; ingestion about 30 minutes before going to sleep): beneficial effect on the quality of sleep

CC(C)(O)CC(=O)O [HMB, Beta-hydroxy beta-methylbutyrate]
derangements in skeletal muscle metabolism and mitochondria [3]: able to attenuate and prevent derangements in skeletal muscle metabolism and mitochondria

NCC(=O)O [glycine]
daytime sleepiness ([4]; especially in the morning): positive effect
subjective quality of sleep ([4]; ingestion prior to sleep): beneficial effect on the subjective quality of sleep
